Point of comparison: `CCOC(=O)Cn1nc(-c2ccc(C)cc2)c(C(N)=O)c1N`, melting point 179 °C. Against it:
- CCOc1ccc(-c2nc(-c3cccc(N4CCCC4C(=O)O)n3)cs2)cc1OCC (stereo not given) — lower, 170 to 171 °C
- Nc1ccccc1/C=C/C(=O)CC(=O)/C=C/c1ccc(O)cc1 — higher, 186 to 193 °C
- CS(=O)(=O)c1ccc(-c2sc(COc3ccccc3Cl)nc2-c2ccc(F)cc2)cc1 — higher, 189 to 191 °C
- COc1ccc(C(=O)O)c(C)c1C — higher, 214 °C
- COc1cc2nc(-c3n[nH]cc3NC(=O)C3CC3)[nH]c2cc1Cl — higher, 225 to 226 °C
- CC(=O)Oc1ccc(C2(c3ccc(OC(C)=O)cc3)C(c3ccccc3)C2(Cl)Cl)cc1 (stereo not given) — lower, 74 to 75 °C
- N#Cc1cnc(Nc2ccc(OCCn3nccn3)cc2)nc1-c1ccccc1 — lower, 156 °C
- N#CCCN1C(=O)C2(OCCCO2)c2ccc(Cl)cc21 — lower, 163 to 164 °C
- CC(C)(C)c1ccc(-c2nc(COc3cccc4cc(NS(=O)(=O)C(F)(F)F)ccc34)co2)cc1 — lower, 165 to 167 °C
- CCOCCc1ccc(OCCNc2nc(C)nc(C)c2Cl)c(C)c1 — lower, 61 to 63 °C
- COc1ccc(C=CC(=O)O)cc1-c1cc2c(cc1OCCN1CCCCC1)C(C)(C)CCC2(C)C — higher, 251 to 253 °C
- C/C(NC1CCCCC1)=C(\C#N)C(N)=S — lower, 142 to 144 °C
- CCNC(=O)N1C(=O)Cc2cc(Cl)ccc21 — lower, 121 to 122 °C
- CCC(=O)Cc1cc2cc(OCCNC[C@H](O)COc3ccccc3)ccc2o1 — lower, 99 to 100 °C
- O=S(=O)(CCCCl)Nc1cccc(COc2cccc3cccnc23)c1 — lower, 142 to 143 °C
- CN1CCN(c2nc3sc4c(NCc5ccco5)ncnc4c3c3c2COC(C)(C)C3)CC1 — lower, 166 to 168 °C
- CC(C)C(NC(=O)OCCN1CCCC1)C(=O)NC(Cc1ccccc1)C(O)C(Cc1ccccc1)NC(=O)C(NC(=O)OCc1ccccc1)C(C)C (stereo not given) — lower, 143 to 146 °C
- CCCCOC(=O)c1cc(=O)c2c3c(cc(Cl)c2o1)-c1ccc(S(=O)(=O)O)cc1C(C)(C)O3 — higher, 241 to 243 °C
- CC(=O)SCC(C(=O)O)C(C)c1ccc(O)cc1 (stereo not given) — lower, 48 °C
- COC(=O)CSSc1cc(Oc2ccc(C(F)(F)F)cc2Cl)ccc1[N+](=O)[O-] — lower, 66 to 68 °C
- CCSc1cn(-c2ccccn2)c2c1C(=O)CC(C)(C)C2 — lower, 158 to 159 °C
- CSC(=C[N+](=O)[O-])Nc1ccc(C#N)cc1 — higher, 188 to 190 °C
- COc1c(C)cc(C)cc1C(N)=O — lower, 109 to 113 °C
- CC(C)c1cc(C(=O)Nc2ccc(OCC(=O)O)cc2)oc1C(C)C — lower, 83 to 85 °C
- CCOC(=O)/C(=N\OCC=C(Cl)Cl)c1csc(N)n1 — lower, 135 to 136 °C
- N#CCSc1nc2cc(Cl)ccc2s1 — lower, 96 to 97 °C
- Fc1ccc(N2CC3CCC2CN3Cc2ccccc2)cc1 (stereo not given) — lower, 74 to 76 °C
- CC(=O)c1ccccc1NC(=O)CN1CCN(CCCC=C(c2ccc(F)cc2)c2ccc(F)cc2)C(C(N)=O)C1 (stereo not given) — lower, 111 °C
- CCc1csc(Cc2ccc(NC(=O)/C=C/c3cnn(C)c3-c3ccc(F)cc3)cc2)n1 — higher, 211 to 212 °C
- CSC(C)=NOC(=O)N(C)SN(C(C)C)P1(=O)OCCCO1 — lower, 134 to 135 °C
- O=C(CC1=C(n2nc(-c3c(-c4ccccc4)nn4ccccc34)ccc2=O)CCCC1)N1CCNCC1 — higher, 208 to 209 °C
- CON=Cc1nc(Nc2ccccc2)nc(C)c1C — lower, 85 to 88 °C
- COc1cc2c(cc1OC)Nc1nccn1C2 — higher, 215 to 217 °C
- COC(=O)c1cc(OC)nc(C)n1 — lower, 90 to 93 °C
- Cc1cc(-n2cnnn2)cc2ccoc12 — lower, 118 °C
- CCOC(=O)N1CCN(C2=C(O)C(=O)c3ccccc3C2=O)CC1 — lower, 115 to 118 °C
- COc1ccc(CNc2ncc(Cl)cc2C(=O)O)cc1 — higher, 204 to 206 °C
- CCCCN(CCCCCN(CCCC)c1ccc(C=O)cc1)c1ccc(C=O)cc1 — lower, 51 to 52 °C
- O=S(=O)(c1ccc(Cl)cc1)C(c1ccc(CN2CCCCC2)cn1)c1cc(F)ccc1F (stereo not given) — lower, 113 to 114 °C

From a melting point compilation (Tetko et al.; mined from patent text by program, amines drawn as free bases though some values may be those of a salt)
